Results reported in PubChem BioAssay (NCI).
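All cell lines were grown in 96-well plates and treated with compound for 48 hours. Here, GI50 denotes the concentration required for 50% inhibition of growth. At the TGI there is no net growth.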

Experiments:
Experiment in all cases: NCI-60 cell line screen, 48 h
786-0 renal = tested on: 786-0 renal
DLD-1 colon = tested on: DLD-1 colon
DMS 114 small cell lung = tested on: DMS 114 small cell lung
LXFL 529 NSCLC = tested on: LXFL 529 NSCLC
M19-MEL melanoma = tested on: M19-MEL melanoma
SK-OV-3 ovarian = tested on: SK-OV-3 ovarian
XF 498 CNS = tested on: XF 498 CNS
BT-549 breast = tested on: BT-549 breast
MDA-MB-231 breast = tested on: MDA-MB-231 breast
PC-3 prostate = tested on: PC-3 prostate

SMILES	TGI (786-0 renal) [µM]	TGI (DLD-1 colon) [µM]	TGI (DMS 114 small cell lung) [µM]	TGI (LXFL 529 NSCLC) [µM]	TGI (M19-MEL melanoma) [µM]	TGI (SK-OV-3 ovarian) [µM]	TGI (XF 498 CNS) [µM]	TGI (BT-549 breast) [µM]	TGI (MDA-MB-231 breast) [µM]	TGI (PC-3 prostate) [µM]	GI50 (786-0 renal) [µM]	GI50 (BT-549 breast) [µM]	GI50 (MDA-MB-231 breast) [µM]	GI50 (PC-3 prostate) [µM]	GI50 (SK-OV-3 ovarian) [µM]	GI50 (DLD-1 colon) [µM]	GI50 (LXFL 529 NSCLC) [µM]
COC(=O)c1cccc2cccc(C(=O)Nc3ccc(Cl)cc3)c12	> 100	> 62.5	> 100	> 100	> 100	> 100	> 100										
CCN(CC)CCNC(=O)c1ccc(C)c(OCc2ccccc2)c1[N+](=O)[O-]	> 74.6	> 100	> 65.7	33.9	32.7	> 75.9	39.7	> 50.6	> 100	> 100							
OCCNCCOc1ccc(/C(=C(/Cl)c2ccccc2)c2ccccc2)cc1	22.2	27.4	29.6	19.7	23.5	10.4	18.2										
c1ccc(CSc2nc3ccccc3nc2-c2cccs2)cc1	> 100	> 100	> 100	> 100	> 100	> 100	> 100										
O=C1C(=O)N(c2cc(Cl)ccc2Cl)C(=O)C(=O)C1c1nc2ccccc2o1	> 100	> 100	> 100	> 100	> 100	> 100	> 100										
COC1=C(Br)C(=O)c2nc(C)ccc2C1=O	27.2	22.2	31.6	16.7	27.8	33.6											
CCOC(=O)/C(=C/c1cccc(C#N)c1)N(CC)CC	> 100	> 100	> 100	> 100	> 100	> 100	> 100										
O=S1(=O)OCCOS(=O)(=O)C1Cl	> 100	> 100	> 100	> 100	> 100	> 100											
O=c1c2ccccc2nc(-c2ccccc2)n1NC(=S)Nc1ccccc1	> 100	> 100	73.7	> 100	> 100	> 100											
Nc1ccccc1SC1CC(=O)N(c2ccc(Cl)c(Cl)c2)C1=O (configuration not stated)	90.3					54		> 100	> 100	> 100	27.3	62.2	17.9	8.78	17.6		
N.N.NCCCCCCCCCN.O=C([O-])CC(=O)[O-].O=C([O-])CC(=O)[O-].[Pt+4].[Pt+4]	> 100	> 100		> 100		> 100					85.8				> 100	> 100	> 100
Cc1nn(C(=O)c2ccc(Cl)cc2)c2c1C(c1ccc(O)cc1)SC(N)=N2 (configuration not stated)	> 10					> 10		> 10	> 10	> 10							
Nc1ccc2[nH]cc(CCC(=O)O)c2c1	> 100					> 100		> 100	> 100	> 100							
COC(C(=O)[C@@H](O)[C@@H](C)O)[C@@H]1Cc2cc3cc(O[C@H]4C[C@@H](O[C@H]5C[C@@H](O)[C@H](O)C(C)O5)[C@H](O)C(C)O4)c(C)c(O)c3c(O)c2C(=O)[C@H]1O[C@H]1C[C@@H](O[C@H]2C[C@@H](O[C@H]3C[C@@H](O)[C@H](OC)C(C)O3)[C@@H](O)C(C)O2)[C@H](O)C(C)O1 (some centres not stated)	> 26.9					> 33.3		0.258	> 33.3	> 33.3	0.0313	0.0219	0.0691	0.0317			
COc1ccc2c(c1)C(C)Cc1c(ncnc1-n1cnc3cc(C)ccc31)N2C (configuration not stated)	15					11.7		7.12	18.6	21	0.0649	0.184	0.229	0.0407	0.0591		
CN(C)CCSc1nccc(-c2cc3ccccc3s2)n1	63.4	> 100	51.6	30.9		94.9											
O=C(N/N=C/c1c(Cl)cccc1Cl)c1ccc(C(F)(F)F)nc1Nc1cccc(C(F)(F)F)c1	3.25					6.3		9	11.1	> 21.1	0.856	2.6	1.51	0.767	1.69		
CC1CN1c1c(C(=O)/C=C/c2ccc(Cl)cc2)c(-c2ccccc2)nn(C)c1=O (configuration not stated)	8.95	3.45	> 10	5.13	> 10	5.76	5.5										
O=C(CSC(c1ccccc1)c1ccccc1)N/N=C/c1ccco1	9.05					> 73		2.78	2.87	9	1.83	1.69	1.35	2.03	28.3		
COc1ccc2c(Oc3ccc(NC(=O)c4c(C)n(CC(C)(C)O)n(-c5ccccc5)c4=O)nc3)ccnc2c1	> 100					> 80.8		> 66	> 93.5	> 95.6	22.3	22.7	8.92	19.5	6.06		
C[C@H]1CCC/C=C/[C@@H]2C[C@H](O)C[C@H]2[C@H](O)[C@@H](SCC(O)CO)CC(=O)O1 (some centres not stated)	15					> 100		> 100	28.1	> 100	2.75	69.2	12.1	32.8	34.7		
